Legend:
Assay in all cases: relative viability (nuclei count vs DMSO), 5 days (fraction); higher = more cells survive
A-427 = tested on: A-427
Outline: (§1)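 Five library-drug doses in √10 steps were combined with a fixed anchor-drug dose, or a single drug was given alone, by pin tool to lung cancer cell lines in 1536-well plates the day after seeding. Nuclei were stained and counted after 5 days. Relative viability is the nuclei count in treated wells over that in vehicle wells, taken as the median of duplicate plates.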

COR-L 105 = tested on: COR-L 105
Outline: as §1

EPLC-272H = tested on: EPLC-272H
Outline: as §1

HCC-366 = tested on: HCC-366
Outline: as §1

HCC-78 = tested on: HCC-78
Outline: as §1

HOP-62 = tested on: HOP-62
Outline: as §1

LC-2-ad = tested on: LC-2-ad
Outline: as §1

LCLC-97TM1 = tested on: LCLC-97TM1
Outline: as §1

LU99A = tested on: LU99A
Outline: as §1

LXF-289 = tested on: LXF-289
Outline: as §1

NCI-H1755 = tested on: NCI-H1755
Outline: as §1

NCI-H1792 = tested on: NCI-H1792
Outline: as §1

NCI-H1915 = tested on: NCI-H1915
Outline: as §1

NCI-H1975 = tested on: NCI-H1975
Outline: as §1

NCI-H2085 = tested on: NCI-H2085
Outline: as §1

NCI-H460 = tested on: NCI-H460
Outline: as §1

SK-LU-1 = tested on: SK-LU-1
Outline: as §1

UMC-11 = tested on: UMC-11
Outline: as §1

In the case of `CC1(C)CCC(c2ccc(Cl)cc2)=C(CN2CCN(c3ccc(C(=O)NS(=O)(=O)c4ccc(N[C@H](CCN5CCOCC5)CSc5ccccc5)c(S(=O)(=O)C(F)(F)F)c4)cc3)CC2)C1` [Navitoclax] + CC(C)C[C@H](NC(=O)[C@H](Cc1ccccc1)NC(=O)c1cnccn1)B(O)O [Bortezomib] (partner 0.002 µM), the relative viability (A-427; first compound 0.005 µM) is reported as 1.06, the relative viability (A-427; first compound 0.01581 µM) is reported as 1.04 and the relative viability (A-427; first compound 0.05 µM) is reported as 0.819. The relative viability (A-427; first compound 0.1581 µM) was 1.02, the relative viability (A-427; first compound 0.5 µM) was 0.949 and the relative viability (COR-L 105; first compound 0.005 µM) was 0.977. The relative viability (COR-L 105; first compound 0.01581 µM) was 1.31, the relative viability (COR-L 105; first compound 0.05 µM) was 0.712 and the relative viability (COR-L 105; first compound 0.1581 µM) was 0.875. The relative viability (COR-L 105; first compound 0.5 µM) was 0.584, the relative viability (EPLC-272H; first compound 0.005 µM) was 0.925 and the relative viability (EPLC-272H; first compound 0.1581 µM) was 0.988. For the same molecule, the relative viability (EPLC-272H; first compound 0.5 µM) was 0.887, the relative viability (HCC-366; first compound 0.005 µM) was 1 and the relative viability (HCC-366; first compound 0.01581 µM) was 1.06. The relative viability (HCC-366; first compound 0.05 µM) was 0.539, the relative viability (HCC-366; first compound 0.1581 µM) was 0.974 and the relative viability (HCC-366; first compound 0.5 µM) was 1.04. It also gave a relative viability (HCC-78; first compound 0.005 µM) of 0.582, a relative viability (HCC-78; first compound 0.01581 µM) of 0.611 and a relative viability (HCC-78; first compound 0.05 µM) of 0.404. The relative viability (HCC-78; first compound 0.1581 µM) was 0.45, the relative viability (HCC-78; first compound 0.5 µM) was 0.469 and the relative viability (HOP-62; first compound 0.005 µM) was 0.575. The relative viability (HOP-62; first compound 0.01581 µM) was 0.818, the relative viability (HOP-62; first compound 0.05 µM) was 0.82 and the relative viability (HOP-62; first compound 0.1581 µM) was 0.85. It also gave a relative viability (HOP-62; first compound 0.5 µM) of 1.1, a relative viability (LC-2-ad; first compound 0.005 µM) of 0.988 and a relative viability (LC-2-ad; first compound 0.01581 µM) of 1.1. The relative viability (LC-2-ad; first compound 0.05 µM) was 0.941, the relative viability (LC-2-ad; first compound 0.1581 µM) was 1.01 and the relative viability (LC-2-ad; first compound 0.5 µM) was 1.06. It also gave a relative viability (LCLC-97TM1; first compound 0.005 µM) of 0.696, a relative viability (LCLC-97TM1; first compound 0.01581 µM) of 1.06 and a relative viability (LCLC-97TM1; first compound 0.05 µM) of 0.583. For the same molecule, the relative viability (LCLC-97TM1; first compound 0.1581 µM) was 0.6, the relative viability (LCLC-97TM1; first compound 0.5 µM) was 0.513 and the relative viability (LU99A; first compound 0.005 µM) was 1.08. The relative viability (LU99A; first compound 0.01581 µM) was 1.29, the relative viability (LU99A; first compound 0.05 µM) was 0.857 and the relative viability (LU99A; first compound 0.1581 µM) was 1.15. For the same molecule, the relative viability (LU99A; first compound 0.5 µM) was 1.32, the relative viability (LXF-289; first compound 0.005 µM) was 0.989 and the relative viability (LXF-289; first compound 0.01581 µM) was 1.05. For the same molecule, the relative viability (LXF-289; first compound 0.05 µM) was 0.928, the relative viability (LXF-289; first compound 0.1581 µM) was 0.967 and the relative viability (LXF-289; first compound 0.5 µM) was 0.959. It also gave a relative viability (NCI-H1755; first compound 0.005 µM) of 0.929, a relative viability (NCI-H1755; first compound 0.01581 µM) of 1.01 and a relative viability (NCI-H1755; first compound 0.05 µM) of 0.723. It also gave a relative viability (NCI-H1755; first compound 0.1581 µM) of 0.903, a relative viability (NCI-H1755; first compound 0.5 µM) of 0.924 and a relative viability (NCI-H1792; first compound 0.005 µM) of 0.976. It also gave a relative viability (NCI-H1792; first compound 0.01581 µM) of 1.01, a relative viability (NCI-H1792; first compound 0.05 µM) of 0.995 and a relative viability (NCI-H1792; first compound 0.1581 µM) of 0.964. It also gave a relative viability (NCI-H1792; first compound 0.5 µM) of 0.934, a relative viability (NCI-H1915; first compound 0.005 µM) of 0.969 and a relative viability (NCI-H1915; first compound 0.01581 µM) of 0.925. The relative viability (NCI-H1915; first compound 0.05 µM) was 0.82, the relative viability (NCI-H1915; first compound 0.1581 µM) was 0.865 and the relative viability (NCI-H1915; first compound 0.5 µM) was 0.929. The relative viability (NCI-H1975; first compound 0.005 µM) was 0.389, the relative viability (NCI-H1975; first compound 0.01581 µM) was 0.354 and the relative viability (NCI-H1975; first compound 0.05 µM) was 0.381. It also gave a relative viability (NCI-H1975; first compound 0.1581 µM) of 0.258, a relative viability (NCI-H1975; first compound 0.5 µM) of 0.255 and a relative viability (NCI-H2085; first compound 0.005 µM) of 0.977. It also gave a relative viability (NCI-H2085; first compound 0.01581 µM) of 1.09, a relative viability (NCI-H2085; first compound 0.05 µM) of 0.855 and a relative viability (NCI-H2085; first compound 0.1581 µM) of 1.15. The relative viability (NCI-H2085; first compound 0.5 µM) was 0.978, the relative viability (NCI-H460; first compound 0.005 µM) was 1.1 and the relative viability (NCI-H460; first compound 0.01581 µM) was 1.16. The relative viability (NCI-H460; first compound 0.05 µM) was 1.4, the relative viability (NCI-H460; first compound 0.1581 µM) was 1.01 and the relative viability (NCI-H460; first compound 0.5 µM) was 0.983. For the same molecule, the relative viability (SK-LU-1; first compound 0.005 µM) was 1.19, the relative viability (SK-LU-1; first compound 0.01581 µM) was 1.12 and the relative viability (SK-LU-1; first compound 0.05 µM) was 0.477. The relative viability (SK-LU-1; first compound 0.1581 µM) was 1.09, the relative viability (SK-LU-1; first compound 0.5 µM) was 0.961 and the relative viability (UMC-11; first compound 0.005 µM) was 0.629. For the same molecule, the relative viability (UMC-11; first compound 0.01581 µM) was 0.8, the relative viability (UMC-11; first compound 0.1581 µM) was 0.661 and the relative viability (UMC-11; first compound 0.5 µM) was 0.311.

— the supplement of paper PMC10307832
